In patent US9914730B2, “Azaquinazoline inhibitors of Atypical protein Kinase C” (Ignyta, Inc., priority 2012, dated 2018):

target: T1, full-length human PKCι (Homo sapiens, UniProt P41743); test: PKCι IC50 IMAP assay, full-length PKCι at 150 μM ATP; format: biochemical; details: read-out: IC50 in IMAP assay against full length PKCi at 150 μM ATP
T1 construct: Recombinant, full-length human PKCι expressed in Sf21 insect cells is also commercially available; purchased; host or cells: Sf21 insect cells
T1 sequence (P41743 1-596): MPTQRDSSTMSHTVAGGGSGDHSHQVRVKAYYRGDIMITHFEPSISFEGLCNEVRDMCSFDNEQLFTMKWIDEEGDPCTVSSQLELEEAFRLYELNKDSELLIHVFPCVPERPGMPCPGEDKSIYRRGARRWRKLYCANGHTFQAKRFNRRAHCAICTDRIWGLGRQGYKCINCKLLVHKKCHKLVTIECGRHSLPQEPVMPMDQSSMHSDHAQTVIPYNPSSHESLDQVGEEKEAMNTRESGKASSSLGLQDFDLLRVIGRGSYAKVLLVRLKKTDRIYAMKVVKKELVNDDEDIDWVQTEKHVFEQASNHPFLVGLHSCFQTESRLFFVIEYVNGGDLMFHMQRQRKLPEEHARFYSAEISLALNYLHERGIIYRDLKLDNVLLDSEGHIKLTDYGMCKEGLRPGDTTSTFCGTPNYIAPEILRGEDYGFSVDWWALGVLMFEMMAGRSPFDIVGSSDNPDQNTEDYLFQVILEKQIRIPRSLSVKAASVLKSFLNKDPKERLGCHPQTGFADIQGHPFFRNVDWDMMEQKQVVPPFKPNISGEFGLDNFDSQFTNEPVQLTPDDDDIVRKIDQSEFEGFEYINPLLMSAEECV
Procedure, shortened: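 Dose-response IC50 values come from IMAP fluorescence polarisation after 60 min room-temperature turnover of 100 nM FAM peptide by ~15 pM insect-cell-expressed full-length PKCι at 150 μM ATP (5× KM^APP), normalised to no-compound and no-enzyme controls.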

Row | IC50 [nM] | Compound
1 | < 100 | COc1cncc2nc(-c3ccnc(Nc4ccc(C)cn4)c3)nc(N3CCNCC3)c12 [Example 364, [4-(5-Methoxy-4-piperazin-1-yl-pyrido[3,4-d]pyrimidin-2-yl)-pyridin-2-yl]-(5-methyl-pyridin-2-yl)-amine]
2 | < 100 | COc1cncc2nc(-c3ccnc(Nc4cc(Cl)ccn4)c3)nc(N3CCNCC3)c12 [Example 365, (4-Chloro-pyridin-2-yl)-[4-(5-methoxy-4-piperazin-1-yl-pyrido[3,4-d]pyrimidin-2-yl)-pyridin-2-yl]-amine]
3 | < 100 | COc1cncc2nc(-c3ccnc(Nc4ccc(Cl)cn4)c3)nc(N3CCNCC3)c12 [Example 366, (5-Chloro-pyridin-2-yl)-[4-(5-methoxy-4-piperazin-1-yl-pyrido[3,4-d]pyrimidin-2-yl)-pyridin-2-yl]-amine]
4 | < 100 | COc1cncc2nc(-c3ccnc(Nc4cc(C(F)(F)F)ccn4)c3)nc(N3CCNCC3)c12 [Example 367, [4-(5-Methoxy-4-piperazin-1-yl-pyrido[3,4-d]pyrimidin-2-yl)-pyridin-2-yl]-(4-trifluoromethyl-pyridin-2-yl)-amine]
5 | < 100 | COc1cncc2nc(-c3ccnc(Nc4ccc(C(F)(F)F)cn4)c3)nc(N3CCNCC3)c12 [Example 368, [4-(5-Methoxy-4-piperazin-1-yl-pyrido[3,4-d]pyrimidin-2-yl)-pyridin-2-yl]-(5-trifluoromethyl-pyridin-2-yl)-amine]
6 | < 100 | COc1cncc2nc(-c3ccnc(NC(=O)Cc4ccc(Cl)cc4)c3)nc(N3CCNCC3)c12 [Example 369, 2-(4-Chloro-phenyl)-N-[4-(5-methoxy-4-piperazin-1-yl-pyrido[3,4-d]pyrimidin-2-yl)-pyridin-2-yl]-acetamide]
7 | < 100 | COc1cncc2nc(-c3ccnc(NC(=O)Cc4cccc(Cl)c4)c3)nc(N3CCNCC3)c12 [Example 370, 2-(3-Chloro-phenyl)-N-[4-(5-methoxy-4-piperazin-1-yl-pyrido[3,4-d]pyrimidin-2-yl)-pyridin-2-yl]-acetamide]
8 | < 100 | COc1cncc2nc(-c3ccnc(NC(=O)Cc4ccccc4)c3)nc(N3CCNCC3)c12 [Example 371, N-[4-(5-Methoxy-4-piperazin-1-yl-pyrido[3,4-d]pyrimidin-2-yl)-pyridin-2-yl]-2-phenyl-acetamide]
9 | < 100 | COc1cccc(CC(=O)Nc2cc(-c3nc(N4CCNCC4)c4c(OC)cncc4n3)ccn2)c1 [Example 372, 2-(3-Methoxy-phenyl)-N-[4-(5-methoxy-4-piperazin-1-yl-pyrido[3,4-d]pyrimidin-2-yl)-pyridin-2-yl]-acetamide]
10 | < 100 | COc1cncc2nc(-c3ccnc(NC(=O)Cc4cccc(C(F)(F)F)c4)c3)nc(N3CCNCC3)c12 [Example 373, N-[4-(5-Methoxy-4-piperazin-1-yl-pyrido[3,4-d]pyrimidin-2-yl)-pyridin-2-yl]-2-(3-trifluoromethyl-phenyl)-acetamide]
11 | < 100 | COc1ccc(CC(=O)Nc2cc(-c3nc(N4CCNCC4)c4c(OC)cncc4n3)ccn2)cc1 [Example 374, 2-(4-Methoxy-phenyl)-N-[4-(5-methoxy-4-piperazin-1-yl-pyrido[3,4-d]pyrimidin-2-yl)-pyridin-2-yl]-acetamide]
12 | < 100 | COc1cncc2nc(-c3ccnc(Nc4ccc(N5CCOCC5)nc4)c3)nc(N3CCNCC3)c12 [Example 375, [4-(5-Methoxy-4-piperazin-1-yl-pyrido[3,4-d]pyrimidin-2-yl)-pyridin-2-yl]-(6-morpholin-4-yl-pyridin-3-yl)-amine]
13 | 100 to 1000 | c1cncc(Nc2cc(-c3nc(N[C@@H]4CCNC4)c4ccncc4n3)ccn2)c1 [Example 376, {2-[2-(Pyridin-3-ylamino)-pyridin-4-yl]-pyrido[3,4-d]pyrimidin-4-yl}-(R)-pyrrolidin-3-yl-amine]
14 | 100 to 1000 | COc1cncc2nc(-c3ccnc(Nc4cccnc4)c3)nc(N[C@@H]3CCNC3)c12 [Example 377, {5-Methoxy-2-[2-(pyridin-3-ylamino)-pyridin-4-yl]-pyrido[3,4-d]pyrimidin-4-yl}-(R)-pyrrolidin-3-yl-amine]
15 | < 100 | COc1cncc2nc(-c3ccnc(Nc4cccnc4)c3)nc(N3CCNCC3)c12 [Example 378, [4-(5-Methoxy-4-piperazin-1-yl-pyrido[3,4-d]pyrimidin-2-yl)-pyridin-2-yl]-pyridin-3-yl-amine]
16 | < 100 | COc1cncc2nc(-c3ccnc(Nc4cc(C(N)=O)ccn4)c3)nc(N3CCNCC3)c12 [Example 379, 2-[4-(5-Methoxy-4-piperazin-1-yl-pyrido[3,4-d]pyrimidin-2-yl)-pyridin-2-ylamino]-isonicotinamide]

Row | IC50 [nM] | Compound
17 | < 100 | COc1cncc2nc(-c3ccnc(Nc4ccc(C(N)=O)cn4)c3)nc(N3CCNCC3)c12 [Example 380, 6-[4-(5-Methoxy-4-piperazin-1-yl-pyrido[3,4-d]pyrimidin-2-yl)-pyridin-2-ylamino]-nicotinamide]
18 | < 100 | COc1cc(Nc2cc(-c3nc(N4CCNCC4)c4c(OC)cncc4n3)ccn2)ccc1N1CCOCC1 [Example 382, (3-Methoxy-4-morpholin-4-yl-phenyl)-[4-(5-methoxy-4-piperazin-1-yl-pyrido[3,4-d]pyrimidin-2-yl)-pyridin-2-yl]-amine]
19 | < 100 | COc1cncc2nc(-c3ccnc(Nc4ccc(N5CCOCC5)cc4C)c3)nc(N3CCNCC3)c12 [Example 383, [4-(5-Methoxy-4-piperazin-1-yl-pyrido[3,4-d]pyrimidin-2-yl)-pyridin-2-yl]-(2-methyl-4-morpholin-4-yl-phenyl)-amine]
20 | 100 to 1000 | COc1cncc2nc(-c3ccnc(Nc4ccc(C#N)nc4)c3)nc(N3CCNCC3)c12 [Example 384]
21 | 100 to 1000 | COc1cncc2nc(-c3ccnc(Nc4cncnc4)c3)nc(N[C@@H]3CCNC3)c12 [Example 385, {5-Methoxy-2-[2-(pyrimidin-5-ylamino)-pyridin-4-yl]-pyrido[3,4-d]pyrimidin-4-yl}-(R)-pyrrolidin-3-yl-amine]
22 | 100 to 1000 | COc1cncc2nc(-c3ccnc(Nc4cncnc4)c3)nc(N3CCNCC3)c12 [Example 386, [4-(5-Methoxy-4-piperazin-1-yl-pyrido[3,4-d]pyrimidin-2-yl)-pyridin-2-yl]-pyrimidin-5-yl-amine]
23 | < 100 | COc1cncc2nc(-c3ccnc(Nc4ccccn4)c3)nc(N3CCNCC3)c12 [Example 387, [4-(5-Methoxy-4-piperazin-1-yl-pyrido[3,4-d]pyrimidin-2-yl)-pyridin-2-yl]-pyridin-2-yl-amine]
24 | 10000 to 40000 | COc1cncc2nc(-c3ccnc(Nc4cc(C#N)ccn4)c3)nc(N3CCOCC3)c12 [Example 388, 2-[4-(5-Methoxy-4-morpholin-4-yl-pyrido[3,4-d]pyrimidin-2-yl)-pyridin-2-ylamino]-isonicotinonitrile]
25 | 100 to 1000 | COc1cncc2nc(-c3ccnc(NC(=O)Cc4cccc(C#N)c4)c3)nc(N3CCOCC3)c12 [Example 389, 2-(3-Cyano-phenyl)-N-[4-(5-methoxy-4-morpholin-4-yl-pyrido[3,4-d]pyrimidin-2-yl)-pyridin-2-yl]-acetamide]
26 | 100 to 1000 | COc1cc(Nc2cc(-c3nc(N4CCNCC4)c4c(OC)cncc4n3)ccn2)cc(OC)c1OC [Example 390, [4-(5-Methoxy-4-piperazin-1-yl-pyrido[3,4-d]pyrimidin-2-yl)-pyridin-2-yl]-(3,4,5-trimethoxy-phenyl)-amine]
27 | < 100 | COc1cncc2nc(-c3ccnc(NC(=O)Cc4ccc(C(F)(F)F)cc4)c3)nc(N3CCNCC3)c12 [Example 391, N-[4-(5-Methoxy-4-piperazin-1-yl-pyrido[3,4-d]pyrimidin-2-yl)-pyridin-2-yl]-2-(4-trifluoromethyl-phenyl)-acetamide]
28 | < 100 | COc1cncc2nc(-c3ccnc(Nc4ccc(-c5ccccc5)nc4)c3)nc(N3CCNCC3)c12 [Example 392, [4-(5-Methoxy-4-piperazin-1-yl-pyrido[3,4-d]pyrimidin-2-yl)-pyridin-2-yl]-(6-phenyl-pyridin-3-yl)-amine]
29 | < 100 | COc1cncc2nc(-c3ccnc(Nc4ccc(C)nc4)c3)nc(N3CCNCC3)c12 [Example 393, [4-(5-Methoxy-4-piperazin-1-yl-pyrido[3,4-d]pyrimidin-2-yl)-pyridin-2-yl]-(6-methyl-pyridin-3-yl)-amine]
30 | < 100 | COc1ccc(Nc2cc(-c3nc(N4CCNCC4)c4c(OC)cncc4n3)ccn2)cn1 [Example 394, [4-(5-Methoxy-4-piperazin-1-yl-pyrido[3,4-d]pyrimidin-2-yl)-pyridin-2-yl]-(6-methoxy-pyridin-3-yl)-amine]
31 | 100 to 1000 | COc1cncc2nc(-c3ccnc(Nc4ccc(C(F)(F)F)nc4)c3)nc(N3CCNCC3)c12 [Example 395, [4-(5-Methoxy-4-piperazin-1-yl-pyrido[3,4-d]pyrimidin-2-yl)-pyridin-2-yl]-(6-trifluoromethyl-pyridin-3-yl)-amine]
